Here are results for 15 compounds from patent US20260256780A1, “COMPOSITIONS FOR INDUCING RAS GTP HYDROLYSIS AND USES THEREOF” (Revolution Medicines, Inc., priority 2023, published 2026).

The first experiment has as its system GTP-loaded KRAS proteins (residue 1-169 of KRAS4B). The experiment can be described thus: RAS GTP hydrolysis rate assay (GTPase-Glo) with cyclophilin A. The format is biochemical. As to conditions: 10 μM compound, 25 μM cyclophilin A, 37° C. The protocol:
(§1) The rate of RAS GTP hydrolysis was assayed in the presence of various KRAS mutations. To assess GTP hydrolysis activity, recombinant KRAS proteins (residue 1-169 of KRAS4B) were expressed in E. coli and purified using a TEV protease-cleavable His6-tag and Ni^2+ affinity chromatography. The His6 tag was removed by treatment with TEV protease, and the KRAS protein was isolated by passing through a second Ni^2+ column followed by size exclusion chromatography. The purified KRAS proteins were loaded with GTP by incubation for 2 hours on ice with 2 mM GTP and 10 mM Ethylenediaminetetraacetic Acid, followed by addition of 10 mM MgCl2 and incubation on ice for 1 additional hour. The excess GTP was removed by overnight dialysis against buffer (12.5 mM HEPES, 75 mM NaCl, pH 7.5) at 4° C. The GTP-loaded KRAS protein were flash frozen in liquid nitrogen, then stored at −80° C. until use.
(§2) GTP-loaded KRAS proteins (1 μM) were combined with 25 μM of recombinant human cyclophilin A and 10 μM of compound in reaction buffer (12.5 mM HEPES, 75 mM NaCl, 1 mM MgCl2, 1 mM DTT, 1% DMSO, pH 7.5) pre-warmed to 37° C. At fixed time points, aliquots were removed and quenched by heating to 80° C. to denature the proteins, then centrifuged to pellet the protein precipitate. The supernatant was assessed for GTP levels using Promega GTPase-Glo™ according to manufacturer instructions. The levels of GTP as a function of incubation time were fit to a single phase exponential decay to determine the rate constant for hydrolysis activity.
Turning to `CCn1c(-c2cccnc2[C@H](C)OC)c2c3cc(ccc31)-c1cc(O)cc(c1)C[C@H](NC(=O)[C@H](C(C)C)N(C)C(=O)C1(C#N)CC1)C(=O)N1CCC[C@H](N1)C(=O)OCC(C)(C)C2` (racemic) [Compound F, reference compound], the “RAS GTP hydrolysis activation” value is “does not activate GTP hydrolysis”.

The target of another experiment is T1, GTP-loaded KRAS proteins (residue 1-169 of KRAS4B) (Homo sapiens, UniProt P01116, G12V).
T1 construct: recombinant KRAS proteins (residue 1-169 of KRAS4B); His6 (TEV protease-cleavable) (cleaved yes); made in house; host or cells: E. coli
The experiment is described as above. As to conditions: bound in tri-complex with cyclophilin A; in some embodiments KRAS^G12V is the isoform used. The format is biochemical. As to the method: as §1, §2
`CO[C@@H](C)c1ncccc1-c1c2c3cc(ccc3n1CC(F)(F)F)CCN(C)C[C@H](NC(=O)[C@H]1C[C@@H]1C)C(=O)N1CCC[C@H](N1)C(=O)OCC(C)(C)C2` (atropisomer, axis not shown) [compound 9]: the “hydrolyzer class: RAS(ON) GTP hydrolysis rate relative to the intrinsic hydrolysis rate” value is 9 Weak.

Regarding `CO[C@@H](C)c1ncccc1-c1c2c3cc(ccc3n1CC(F)(F)F)CCOC[C@H](NC(=O)[C@H]1C[C@@H]1C)C(=O)N1CCC[C@H](N1)C(=O)OCC(C)(C)C2` (atropisomer, axis not shown) [compound 10], the “hydrolyzer class: RAS(ON) GTP hydrolysis rate relative to the intrinsic hydrolysis rate” value is 10 Moderate.

Turning to `CO[C@@H](C)c1ncc(N2CCN(C)CC2)cc1-c1c2c3cc(ccc3n1CC(F)(F)F)-c1csc(n1)C[C@H](NC(=O)[C@H]1C[C@@H]1C)C(=O)N1CCC[C@H](N1)C(=O)OCC(C)(C)C2` (atropisomer, axis not shown) [compound 11], the “hydrolyzer class: RAS(ON) GTP hydrolysis rate relative to the intrinsic hydrolysis rate” value was 11 Moderate.

For `CCn1c(-c2cc(N3CCN(C)CC3)cnc2[C@H](C)OC)c2c3cc(ccc31)-c1csc(n1)C[C@H](NC(=O)[C@H]1C[C@@H]1C)C(=O)N1CCC[C@H](N1)C(=O)OCC(C)(C)C2` (atropisomer, axis not shown) [compound 12], the “hydrolyzer class: RAS(ON) GTP hydrolysis rate relative to the intrinsic hydrolysis rate” value was determined as 12 Moderate.

On to `CCn1c(-c2cc(N3CCN(C)CC3)cnc2[C@H](C)OC)c2c3cc(ccc31)-c1csc(n1)C[C@H](NC(=O)[C@H](C(C)C)N(C)C(=O)N(C)C)C(=O)N1CCC[C@H](N1)C(=O)OCC(C)(C)C2` (atropisomer, axis not shown) [compound 13], for which the “hydrolyzer class: RAS(ON) GTP hydrolysis rate relative to the intrinsic hydrolysis rate” value came to 13 Moderate.

For `CCn1c(-c2cc(N3CCN(C)CC3)cnc2[C@H](C)OC)c2c3cc(ccc31)-c1csc(n1)C[C@H](NC(=O)[C@H](C(C)C)N(C)C(=O)N1CC(N(C)C)C1)C(=O)N1CCC[C@H](N1)C(=O)OCC(C)(C)C2` (atropisomer, axis not shown) [compound 14], the “hydrolyzer class: RAS(ON) GTP hydrolysis rate relative to the intrinsic hydrolysis rate” value was found to be 14 Moderate.

Consider `CCO[C@@H]1c2nc(cs2)-c2ccc3c(c2)c(c(-c2cc(N4CCN(C)CC4)cnc2[C@H](C)OC)n3CC)CC(C)(C)COC(=O)[C@@H]2CCCN(N2)C(=O)[C@H]1NC(=O)[C@H]1[C@H](C)[C@@H]1C` (atropisomer, axis not shown) [compound 15], for which the “hydrolyzer class: RAS(ON) GTP hydrolysis rate relative to the intrinsic hydrolysis rate” value is recorded as 15 Moderate.

Regarding `CCO[C@@H]1c2nc(cs2)-c2ccc3c(c2)c(c(-c2cc([C@@H]4CCN5CCOC[C@@H]5C4)cnc2[C@H](C)OC)n3CC)CC(C)(C)COC(=O)[C@@H]2CCCN(N2)C(=O)[C@H]1NC(=O)[C@H]1[C@H](C)[C@@H]1C` (atropisomer, axis not shown) [compound 16], the “hydrolyzer class: RAS(ON) GTP hydrolysis rate relative to the intrinsic hydrolysis rate” value worked out at 16 Moderate.

In the case of `CCO[C@@H]1c2nc(cs2)-c2ccc3c(c2)c(c(-c2cccnc2[C@H](C)OC)n3CC)CC(C)(C)COC(=O)[C@@H]2CCCN(N2)C(=O)[C@H]1NC(=O)[C@@H]1[C@@H](C)[C@H]1C(=O)N(C)C` (atropisomer, axis not shown) [compound 17], the “hydrolyzer class: RAS(ON) GTP hydrolysis rate relative to the intrinsic hydrolysis rate” value was determined as 17 Weak.

Consider `CCO[C@@H]1c2nc(cs2)-c2ccc3c(c2)c(c(-c2cc(N4CCN(C)CC4)cnc2[C@H](C)OC)n3CCOC(C)C)CC(C)(C)COC(=O)[C@@H]2CCCN(N2)C(=O)[C@H]1NC(=O)N1CC[C@H]1C` (atropisomer, axis not shown) [compound 18], for which the “hydrolyzer class: RAS(ON) GTP hydrolysis rate relative to the intrinsic hydrolysis rate” value is recorded as 18 Weak.

`CCn1c(-c2cccnc2[C@H](C)OC)c2c3cc(ccc31)-c1csc(n1)C[C@H](NC(=O)[C@H](C(C)C)N(C)C(=O)N1CC(OC)C1)C(=O)N1CCC[C@H](N1)C(=O)OCC(C)(C)C2` (atropisomer, axis not shown) [compound 19]: the “hydrolyzer class: RAS(ON) GTP hydrolysis rate relative to the intrinsic hydrolysis rate” value is given as 19 Moderate.

Regarding `CCn1c(-c2cc(N3CCN(C)CC3)cnc2[C@H](C)OC)c2c3cc(ccc31)-c1cccc(c1)C[C@H](NC(=O)[C@H]1C[C@@H]1C)C(=O)N1CCC[C@H](N1)C(=O)OCC(C)(C)C2` (atropisomer, axis not shown) [compound 20], the “hydrolyzer class: RAS(ON) GTP hydrolysis rate relative to the intrinsic hydrolysis rate” value was found to be 20 Weak.

As for `CCn1c(-c2cc(N3CCN(C)CC3)cnc2[C@H](C)OC)c2c3cc(ccc31)-c1cccc(n1)C[C@H](NC(=O)[C@H]1C[C@@H]1C)C(=O)N1CCC[C@H](N1)C(=O)OCC(C)(C)C2` (atropisomer, axis not shown) [compound 21], the “hydrolyzer class: RAS(ON) GTP hydrolysis rate relative to the intrinsic hydrolysis rate” value was 21 Weak.

As to `CCn1c(-c2cc(N3CCN(C)CC3)cnc2[C@H](C)OC)c2c3cc(ccc31)N1CCO[C@@H](C[C@H](NC(=O)[C@H]3C[C@@H]3C)C(=O)N3CCC[C@H](N3)C(=O)OCC(C)(C)C2)C1` (atropisomer, axis not shown) [compound 22], the “hydrolyzer class: RAS(ON) GTP hydrolysis rate relative to the intrinsic hydrolysis rate” value is reported as 22 Weak.
